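In this assay, cells in 96-well plates receive the compound at five concentrations for 48 hours. Endpoints are linearly interpolated between the surrounding concentrations. GI50 = concentration required for 50% inhibition of growth. TGI: total growth inhibition.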
Legend:
Assay in all cases: DTP human tumour cell line panel, 48 h
SK-OV-3 ovarian = tested on: SK-OV-3 ovarian
LOX IMVI melanoma = tested on: LOX IMVI melanoma
U251 CNS = tested on: U251 CNS
TK-10 renal = tested on: TK-10 renal
BT-549 breast = tested on: BT-549 breast
OVCAR-5 ovarian = tested on: OVCAR-5 ovarian
CAKI-1 renal = tested on: CAKI-1 renal
786-0 renal = tested on: 786-0 renal
A498 renal = tested on: A498 renal
SF-268 CNS = tested on: SF-268 CNS
HCT-15 colon = tested on: HCT-15 colon
NCI/ADR-RES ovarian = tested on: NCI/ADR-RES ovarian
NCI-H460 lung = tested on: NCI-H460 lung
SF-295 CNS = tested on: SF-295 CNS
HCT-116 colon = tested on: HCT-116 colon
PC-3 prostate = tested on: PC-3 prostate
M14 melanoma = tested on: M14 melanoma
RXF 393 renal = tested on: RXF 393 renal
OVCAR-4 ovarian = tested on: OVCAR-4 ovarian
UACC-62 melanoma = tested on: UACC-62 melanoma
SK-MEL-5 melanoma = tested on: SK-MEL-5 melanoma
KM12 colon = tested on: KM12 colon
NCI-H226 lung = tested on: NCI-H226 lung
SNB-19 CNS = tested on: SNB-19 CNS
HOP-62 NSCLC = tested on: HOP-62 NSCLC
MALME-3M melanoma = tested on: MALME-3M melanoma
OVCAR-3 ovarian = tested on: OVCAR-3 ovarian
RPMI-8226 leukemia = tested on: RPMI-8226 leukemia
SNB-75 CNS = tested on: SNB-75 CNS
K-562 leukemia = tested on: K-562 leukemia
DU-145 prostate = tested on: DU-145 prostate
T-47D breast = tested on: T-47D breast
MDA-MB-231 breast = tested on: MDA-MB-231 breast
UO-31 renal = tested on: UO-31 renal
EKVX NSCLC = tested on: EKVX NSCLC
A549 NSCLC = tested on: A549 NSCLC
CCRF-CEM leukemia = tested on: CCRF-CEM leukemia
HOP-92 NSCLC = tested on: HOP-92 NSCLC
SF-539 CNS = tested on: SF-539 CNS
SW-620 colon = tested on: SW-620 colon
MCF7 breast = tested on: MCF7 breast
NCI-H522 lung = tested on: NCI-H522 lung
MOLT-4 leukemia = tested on: MOLT-4 leukemia
HCC-2998 colon = tested on: HCC-2998 colon
SK-MEL-28 melanoma = tested on: SK-MEL-28 melanoma
COLO 205 colon = tested on: COLO 205 colon
ACHN renal = tested on: ACHN renal
HT29 colon = tested on: HT29 colon
MDA-MB-435 = tested on: MDA-MB-435
IGROV1 ovarian = tested on: IGROV1 ovarian
UACC-257 melanoma = tested on: UACC-257 melanoma
HS 578T breast = tested on: HS 578T breast
OVCAR-8 ovarian = tested on: OVCAR-8 ovarian
SN12C renal = tested on: SN12C renal
NCI-H23 lung = tested on: NCI-H23 lung

Cc1ccc(C(C)C)cc1NC(=O)Nc1ccc([N+](=O)[O-])cc1 was tested, and the GI50 (SK-OV-3 ovarian) was 2170 nM, the TGI (SK-OV-3 ovarian) was 5.97 µM and the GI50 (LOX IMVI melanoma) was 1990 nM. For the same compound, the TGI (LOX IMVI melanoma) was 4.82 µM, the GI50 (U251 CNS) was 2250 nM and the TGI (U251 CNS) was 6.46 µM. It also gave a GI50 (TK-10 renal) of 2360 nM, a TGI (TK-10 renal) of 9.44 µM and a GI50 (BT-549 breast) of 2130 nM. For the same compound, the TGI (BT-549 breast) was 8.21 µM, the GI50 (OVCAR-5 ovarian) was 2920 nM and the TGI (OVCAR-5 ovarian) was 8.99 µM. For the same compound, the GI50 (CAKI-1 renal) was 2100 nM, the TGI (CAKI-1 renal) was 5.62 µM and the GI50 (786-0 renal) was 2320 nM. For the same compound, the TGI (786-0 renal) was 5.29 µM, the GI50 (A498 renal) was 1190 nM and the TGI (A498 renal) was 4.45 µM. The GI50 (SF-268 CNS) was 2670 nM, the TGI (SF-268 CNS) was 12.1 µM and the GI50 (HCT-15 colon) was 2440 nM. The TGI (HCT-15 colon) was 8.94 µM, the GI50 (NCI/ADR-RES ovarian) was 2610 nM and the TGI (NCI/ADR-RES ovarian) was 7.7 µM. For the same compound, the GI50 (NCI-H460 lung) was 2210 nM, the TGI (NCI-H460 lung) was 5.34 µM and the GI50 (SF-295 CNS) was 1840 nM. It also gave a TGI (SF-295 CNS) of 5.11 µM, a GI50 (HCT-116 colon) of 2450 nM and a TGI (HCT-116 colon) of 7.13 µM. It also gave a GI50 (PC-3 prostate) of 2750 nM, a TGI (PC-3 prostate) of 12.2 µM and a GI50 (M14 melanoma) of 2450 nM. The TGI (M14 melanoma) was 7.28 µM, the GI50 (RXF 393 renal) was 2810 nM and the TGI (RXF 393 renal) was 13.5 µM. It also gave a GI50 (OVCAR-4 ovarian) of 3.44 µM, a TGI (OVCAR-4 ovarian) of 13 µM and a GI50 (UACC-62 melanoma) of 1810 nM. For the same compound, the TGI (UACC-62 melanoma) was 10.2 µM, the GI50 (SK-MEL-5 melanoma) was 1550 nM and the TGI (SK-MEL-5 melanoma) was 2900 nM. The GI50 (KM12 colon) was 2250 nM, the TGI (KM12 colon) was 5.91 µM and the GI50 (NCI-H226 lung) was 1770 nM. It also gave a TGI (NCI-H226 lung) of 6.14 µM, a GI50 (SNB-19 CNS) of 2990 nM and a TGI (SNB-19 CNS) of 12 µM. The GI50 (HOP-62 NSCLC) was 2530 nM, the TGI (HOP-62 NSCLC) was 5.92 µM and the GI50 (MALME-3M melanoma) was 2020 nM. The TGI (MALME-3M melanoma) was 6.48 µM, the GI50 (OVCAR-3 ovarian) was 1770 nM and the TGI (OVCAR-3 ovarian) was 6.28 µM. It also gave a GI50 (RPMI-8226 leukemia) of 1570 nM, a TGI (RPMI-8226 leukemia) of 4.73 µM and a GI50 (SNB-75 CNS) of 2520 nM. The TGI (SNB-75 CNS) was 10.5 µM, the GI50 (K-562 leukemia) was 2960 nM and the TGI (K-562 leukemia) was 7.74 µM. It also gave a GI50 (DU-145 prostate) of 2490 nM, a TGI (DU-145 prostate) of 12 µM and a GI50 (T-47D breast) of 1990 nM. It also gave a TGI (T-47D breast) of 7.36 µM, a GI50 (MDA-MB-231 breast) of 1520 nM and a TGI (MDA-MB-231 breast) of 3.65 µM. It also gave a GI50 (UO-31 renal) of 1540 nM, a TGI (UO-31 renal) of 5.79 µM and a GI50 (EKVX NSCLC) of 2370 nM. It also gave a TGI (EKVX NSCLC) of 8.01 µM, a GI50 (A549 NSCLC) of 2630 nM and a TGI (A549 NSCLC) of 11.1 µM. The GI50 (CCRF-CEM leukemia) was 1970 nM, the TGI (CCRF-CEM leukemia) was 5.53 µM and the GI50 (HOP-92 NSCLC) was 2420 nM. The TGI (HOP-92 NSCLC) was 8.89 µM, the GI50 (SF-539 CNS) was 2570 nM and the TGI (SF-539 CNS) was 7.89 µM. It also gave a GI50 (SW-620 colon) of 2890 nM, a TGI (SW-620 colon) of 10.7 µM and a GI50 (MCF7 breast) of 1950 nM. For the same compound, the TGI (MCF7 breast) was 5.72 µM, the GI50 (NCI-H522 lung) was 1380 nM and the TGI (NCI-H522 lung) was 3.97 µM. The GI50 (MOLT-4 leukemia) was 2130 nM, the TGI (MOLT-4 leukemia) was 4.63 µM and the GI50 (HCC-2998 colon) was 2090 nM. It also gave a TGI (HCC-2998 colon) of 5.44 µM, a GI50 (SK-MEL-28 melanoma) of 2780 nM and a TGI (SK-MEL-28 melanoma) of 10.4 µM. It also gave a GI50 (COLO 205 colon) of 1670 nM, a TGI (COLO 205 colon) of 3.03 µM and a GI50 (ACHN renal) of 2560 nM. For the same compound, the TGI (ACHN renal) was 7.82 µM, the GI50 (HT29 colon) was 3.2 µM and the TGI (HT29 colon) was 10.2 µM. The GI50 (MDA-MB-435) was 2190 nM, the TGI (MDA-MB-435) was 6.5 µM and the GI50 (IGROV1 ovarian) was 1380 nM. It also gave a TGI (IGROV1 ovarian) of 4.79 µM, a GI50 (UACC-257 melanoma) of 2410 nM and a TGI (UACC-257 melanoma) of 7.71 µM. For the same compound, the GI50 (HS 578T breast) was 1660 nM, the TGI (HS 578T breast) was 5.18 µM and the GI50 (OVCAR-8 ovarian) was 3.19 µM. For the same compound, the TGI (OVCAR-8 ovarian) was 11.6 µM, the GI50 (SN12C renal) was 2280 nM and the TGI (SN12C renal) was 8.97 µM. For the same compound, the GI50 (NCI-H23 lung) was 2490 nM and the TGI (NCI-H23 lung) was 7.97 µM.
